Results published in ChEMBL document CHEMBL5042510, “Structure-Guided Discovery of Aminoquinazolines as Brain-Penetrant and Selective LRRK2 Inhibitors” (J Med Chem, 2022).
Values after ≈ are worked out from the molar mass of the structure shown.

Experiments:
[1] = biological target: Voltage-gated inwardly rectifying potassium channel KCNH2 (Homo sapiens, UniProt Q12809); assay: Inhibition of human ERG by voltage clamp assay; format: toxicity
[2] = Total plasma clearance in Beagle dog at 1 mg/kg, iv by LC-MS/MS analysis; format: ADME, organism-based, Canis lupus familiaris
[3] = Toxicity in rat assessed as elevation of AhR gene expression at 10 to 75 mg/kg, po bid administered for 4 days; format: organism-based; conditions: in vivo, 96 h, dose 10-75 mg/kg, time 4 day
[4] = Toxicity in rat assessed as induction of liver injury at 40 to 400 mg/kg, po qd administered for 4 days; format: organism-based; conditions: in vivo, 96 h, dose 40-400 mg/kg, time 4 day
[5] = Cardiotoxicity in telemetered Wistar Han rat assessed as elevation of diastolic blood pressure at 100 mg/kg, po; format: toxicity, organism-based; conditions: in vivo
[6] = Unbound fraction in CD rat brain at 1 to 100 mg/kg, po measured after 120 mins by LC/MS/MS analysis; format: ADME, organism-based; conditions: in vivo, 2 h, dose 1-100 mg/kg
[7] = Toxicity in rat assessed as reduction in weight gain at 150 mg/kg, po qd administered for 4 days; format: organism-based; conditions: in vivo, 96 h, time 4 day
[8] = Toxicity in rat assessed as fold increase in serum ALP levels at 150 mg/kg, po qd administered for 4 days; format: organism-based; conditions: in vivo, 96 h, time 4 day
[9] = tested on: rat Mdr1a (P-gp); assay: Apparent permeability from apical to basolateral side in rat Mdr1a-transfected pig LLC-PK1 cells at 0.1 to 1 uM measured after 3 hrs by LC/MS/MS analysis; format: ADME, cell-based, Sus scrofa; conditions: dose 0.1-1 µM
[10] = Toxicity in rat assessed as elevation of PXR gene expression at 10 to 75 mg/kg, po bid administered for 4 days; format: organism-based; conditions: in vivo, 96 h, dose 10-75 mg/kg, time 4 day
[11] = MRT in Wistar Han rat at 2 mg/kg, iv by LC-MS/MS analysis; format: ADME, organism-based; conditions: in vivo
[12] = Inhibition of adenosine transporter (unknown origin); set-up: species or system Homo sapiens
[13] = Cardiotoxicity in guinea pig assessed as increase in QTc level at 157X unbound EM infused via iv consecutively for 20 mins; format: toxicity, organism-based, Cavia porcellus; conditions: in vivo
[14] = tested on: Salmonella typhimurium; assay: Mutagenicity in Salmonella typhimurium TA1535 at 30 to 5000 ug incubated for 48 hrs in presence of liver S9 fraction by AMES test; format: toxicity, organism-based, Salmonella enterica subsp. enterica serovar Typhimurium; conditions: s9, 48 h, dose 30-5000 µg
[15] = Unbound brain-to-plasma concentration ratio in rat at 10 mg/kg, po qd for 4 days by LC/MS/MS analysis; format: ADME, organism-based; conditions: brain and plasma (unbound), time 4 day, read-out: K(p,uu,brain)
[16] = In vivo inhibition of LRRK2 in CD rat assessed as reduction in phosphorylation at Ser935 residue in striatum at 3 mg/kg, po measured after 2 hrs by MSD assay; format: functional
[17] = Total plasma clearance in Wistar Han rat at 2 mg/kg, iv by LC-MS/MS analysis; format: ADME, organism-based
[18] = tested on: GSTA5; assay: Toxicity in rat assessed as fold increase in GSTA5 transcriptional activity in liver at 75 mg/kg, po bid administered for 4 days relative to control; format: organism-based; conditions: time 4 day, read-out: FC
[19] = Oral bioavailability in Rhesus monkey at 2 mg/kg by LC-MS/MS analysis; format: ADME, organism-based, Macaca mulatta; conditions: in vivo
[20] = MRT in Beagle dog at 1 mg/kg, iv by LC-MS/MS analysis; format: ADME, organism-based, Canis lupus familiaris; conditions: in vivo
[21] = Dissociation constant, pKa of the compound; format: physicochemical
[22] = tested on: Salmonella typhimurium; assay: Mutagenicity in Salmonella typhimurium TA100 at 30 to 5000 ug incubated for 48 hrs in presence of liver S9 fraction by AMES test; format: toxicity, organism-based, Salmonella enterica subsp. enterica serovar Typhimurium; conditions: s9, 48 h, dose 30-5000 µg
[23] = Toxicity in rat assessed as positive tissue transcriptional score at 40 to 400 mg/kg, po qd administered for 4 days; format: organism-based; conditions: in vivo, 96 h, dose 40-400 mg/kg, time 4 day
[24] = Intrinsic clearance in Rhesus monkey at 3 mg/kg, iv by LC-MS/MS analysis; format: ADME, organism-based, Macaca mulatta; conditions: in vivo
[25] = Unbound brain-to-plasma concentration ratio in rat at 2.5 uM incubated for 4 hrs by equilibrium dialysis method; format: ADME, cell-free; conditions: brain and plasma (unbound), read-out: K(p,uu,brain)
[26] = Toxicity in rat assessed as elevation of inflammatory response related gene expression at 10 to 75 mg/kg, po bid administered for 4 days; format: organism-based; conditions: in vivo, 96 h, dose 10-75 mg/kg, time 4 day
[27] = tested on: UGT1A6; assay: Toxicity in rat assessed as fold increase in UGT1A6 transcriptional activity in liver at 75 mg/kg, po bid administered for 4 days relative to control; format: organism-based; conditions: time 4 day, read-out: FC
[28] = tested on: mouse Bcrp; assay: Efflux ratio of apparent permeability across basolateral to apical over apical to basolateral side in mouse Bcrp-transfected dog MDCK-II cells at 0.1 to 1 uM measured after 3 hrs by LC/MS/MS analysis; format: ADME, cell-based, Canis lupus familiaris; conditions: dose 0.1-1 µM
[29] = In vivo inhibition of LRRK2 in CD rat assessed as reduction in phosphorylation at Ser935 residue in striatum at 30 mg/kg, po measured after 2 hrs by MSD assay; format: functional
[30] = Intrinsic clearance in Beagle dog at 1 mg/kg, iv by LC-MS/MS analysis; format: ADME, organism-based, Canis lupus familiaris; conditions: in vivo
[31] = Toxicity in rat assessed as fold increase in serum ALT levels at 150 mg/kg, po qd administered for 4 days; format: organism-based; conditions: in vivo, 96 h, time 4 day
[32] = Toxicity in rat bone marrow at 40 to 400 mg/kg, po qd administered for 4 days by micronucleus assay; format: organism-based; conditions: in vivo, 96 h, dose 40-400 mg/kg, time 4 day
[33] = Intrinsic clearance in human hepatocytes at 0.3 uM incubated for 90 mins by LC/MS/MS analysis; format: ADME, cell-based, Hepatocyte; conditions: read-out: CLH
[34] = Unbound brain-to-plasma concentration ratio in CD rat 1 to 100 mg/kg, po measured after 120 mins by LC/MS/MS analysis; format: ADME, organism-based; conditions: brain and plasma (unbound), dose 1-100 mg/kg, read-out: K(p,uu,brain)
[35] = MRT in Rhesus monkey at 3 mg/kg, iv by LC-MS/MS analysis; format: ADME, organism-based, Macaca mulatta; conditions: in vivo
[36] = Thermodynamic solubility of the compound in FaSSIF measured after 24 hrs by reverse phase UPLC analysis; format: physicochemical; conditions: read-out: Therm_solubility
[37] = tested on: CYP1A1; assay: Toxicity in rat assessed as fold induction of CYP1A1 transcriptional activity in liver at 10 to 75 mg/kg, po bid administered for 4 days relative to control; format: organism-based; conditions: dose 10-75 mg/kg, time 4 day, read-out: FC
[38] = tested on: Salmonella typhimurium; assay: Mutagenicity in Salmonella typhimurium TA98 at 30 to 5000 ug incubated for 48 hrs in presence of liver S9 fraction by AMES test; format: toxicity, organism-based, Salmonella enterica subsp. enterica serovar Typhimurium; conditions: s9, 48 h, dose 30-5000 µg
[39] = biological target: Leucine-rich repeat serine/threonine-protein kinase 2 (Homo sapiens, UniProt Q5S007, G2019S); assay: Inhibition of recombinant N-terminal GST-fused LRRK2 […] mutant (970 to 2527 residues) (unknown origin) preincubated with enzyme for 15 mins followed by fluorescein-labeled LRRKtide peptide substrate and ATP addition for 90 mins by TR-FRET assay
[40] = Total plasma clearance in Rhesus monkey at 3 mg/kg, iv by LC-MS/MS analysis; format: ADME, organism-based, Macaca mulatta
[41] = tested on: mouse Bcrp; assay: Apparent permeability in mouse Bcrp-transfected dog MDCK-II cells at 0.1 to 1 uM measured after 3 hrs by LC/MS/MS analysis; format: ADME, cell-based, Canis lupus familiaris; conditions: dose 0.1-1 µM

Chain of Leucine-rich repeat serine/threonine-protein kinase 2 (Q5S007 whole entry G2019S, the tested form may be a part): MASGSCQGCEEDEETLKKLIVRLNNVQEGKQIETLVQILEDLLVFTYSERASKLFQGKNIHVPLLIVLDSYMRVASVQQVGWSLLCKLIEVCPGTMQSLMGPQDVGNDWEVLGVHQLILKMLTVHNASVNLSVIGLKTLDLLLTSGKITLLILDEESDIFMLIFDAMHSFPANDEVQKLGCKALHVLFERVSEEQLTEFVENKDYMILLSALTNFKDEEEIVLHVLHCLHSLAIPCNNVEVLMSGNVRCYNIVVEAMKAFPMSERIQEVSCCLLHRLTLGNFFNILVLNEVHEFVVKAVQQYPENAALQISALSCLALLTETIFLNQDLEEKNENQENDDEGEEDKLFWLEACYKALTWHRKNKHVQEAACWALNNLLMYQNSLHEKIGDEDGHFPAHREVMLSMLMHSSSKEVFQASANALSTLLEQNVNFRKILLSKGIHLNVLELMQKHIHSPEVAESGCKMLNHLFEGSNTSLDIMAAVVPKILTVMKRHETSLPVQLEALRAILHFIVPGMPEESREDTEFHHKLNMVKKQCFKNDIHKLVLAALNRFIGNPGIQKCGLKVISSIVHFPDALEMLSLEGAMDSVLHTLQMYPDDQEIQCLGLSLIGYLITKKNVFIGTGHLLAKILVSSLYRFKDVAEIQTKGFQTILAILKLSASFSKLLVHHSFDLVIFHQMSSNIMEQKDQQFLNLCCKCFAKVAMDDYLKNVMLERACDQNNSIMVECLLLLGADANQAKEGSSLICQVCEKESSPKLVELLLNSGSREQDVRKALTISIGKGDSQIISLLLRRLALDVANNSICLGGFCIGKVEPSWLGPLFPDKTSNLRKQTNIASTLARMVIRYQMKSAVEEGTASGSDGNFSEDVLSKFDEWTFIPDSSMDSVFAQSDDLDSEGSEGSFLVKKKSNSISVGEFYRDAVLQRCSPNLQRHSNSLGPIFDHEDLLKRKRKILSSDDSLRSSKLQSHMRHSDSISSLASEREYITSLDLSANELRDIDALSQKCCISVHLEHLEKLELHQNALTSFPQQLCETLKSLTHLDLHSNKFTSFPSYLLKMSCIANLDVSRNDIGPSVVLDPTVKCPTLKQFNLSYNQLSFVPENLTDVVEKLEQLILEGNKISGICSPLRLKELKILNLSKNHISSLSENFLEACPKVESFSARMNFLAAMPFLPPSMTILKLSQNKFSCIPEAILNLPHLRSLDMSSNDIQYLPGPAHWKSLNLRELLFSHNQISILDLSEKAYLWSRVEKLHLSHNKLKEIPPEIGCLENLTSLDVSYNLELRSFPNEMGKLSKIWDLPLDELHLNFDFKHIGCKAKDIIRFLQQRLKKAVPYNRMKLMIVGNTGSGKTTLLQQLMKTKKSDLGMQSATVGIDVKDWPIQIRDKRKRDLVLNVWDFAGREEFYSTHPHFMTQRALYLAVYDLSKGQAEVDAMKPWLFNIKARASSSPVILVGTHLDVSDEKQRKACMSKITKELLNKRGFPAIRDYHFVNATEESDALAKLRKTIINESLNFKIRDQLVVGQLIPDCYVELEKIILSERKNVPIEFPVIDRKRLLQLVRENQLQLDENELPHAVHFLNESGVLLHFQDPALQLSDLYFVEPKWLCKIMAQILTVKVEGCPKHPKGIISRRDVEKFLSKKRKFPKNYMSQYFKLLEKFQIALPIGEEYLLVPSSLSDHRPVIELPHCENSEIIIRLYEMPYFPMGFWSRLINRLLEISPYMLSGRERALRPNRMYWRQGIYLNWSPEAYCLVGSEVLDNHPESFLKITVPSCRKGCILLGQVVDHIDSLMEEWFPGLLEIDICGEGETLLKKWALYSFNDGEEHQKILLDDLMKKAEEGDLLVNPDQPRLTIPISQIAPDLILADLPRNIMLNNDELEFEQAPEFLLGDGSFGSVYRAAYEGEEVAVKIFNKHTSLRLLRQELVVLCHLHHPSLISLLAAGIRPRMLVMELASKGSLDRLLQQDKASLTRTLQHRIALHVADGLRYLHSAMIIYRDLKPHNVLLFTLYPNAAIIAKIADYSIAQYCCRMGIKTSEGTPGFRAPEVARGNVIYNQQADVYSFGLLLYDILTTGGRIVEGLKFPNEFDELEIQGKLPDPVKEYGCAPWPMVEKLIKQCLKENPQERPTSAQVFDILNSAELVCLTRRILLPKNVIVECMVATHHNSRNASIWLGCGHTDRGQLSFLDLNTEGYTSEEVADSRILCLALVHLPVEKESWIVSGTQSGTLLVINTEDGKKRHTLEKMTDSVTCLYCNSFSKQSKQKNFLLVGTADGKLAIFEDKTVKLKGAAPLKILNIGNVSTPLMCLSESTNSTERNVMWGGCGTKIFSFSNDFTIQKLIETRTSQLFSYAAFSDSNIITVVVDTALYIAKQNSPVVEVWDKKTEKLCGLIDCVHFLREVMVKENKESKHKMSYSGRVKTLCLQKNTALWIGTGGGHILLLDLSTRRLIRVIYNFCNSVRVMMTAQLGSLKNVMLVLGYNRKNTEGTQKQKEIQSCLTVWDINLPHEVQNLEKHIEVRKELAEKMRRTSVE
Chain of Voltage-gated inwardly rectifying potassium channel KCNH2 (Q12809 whole entry): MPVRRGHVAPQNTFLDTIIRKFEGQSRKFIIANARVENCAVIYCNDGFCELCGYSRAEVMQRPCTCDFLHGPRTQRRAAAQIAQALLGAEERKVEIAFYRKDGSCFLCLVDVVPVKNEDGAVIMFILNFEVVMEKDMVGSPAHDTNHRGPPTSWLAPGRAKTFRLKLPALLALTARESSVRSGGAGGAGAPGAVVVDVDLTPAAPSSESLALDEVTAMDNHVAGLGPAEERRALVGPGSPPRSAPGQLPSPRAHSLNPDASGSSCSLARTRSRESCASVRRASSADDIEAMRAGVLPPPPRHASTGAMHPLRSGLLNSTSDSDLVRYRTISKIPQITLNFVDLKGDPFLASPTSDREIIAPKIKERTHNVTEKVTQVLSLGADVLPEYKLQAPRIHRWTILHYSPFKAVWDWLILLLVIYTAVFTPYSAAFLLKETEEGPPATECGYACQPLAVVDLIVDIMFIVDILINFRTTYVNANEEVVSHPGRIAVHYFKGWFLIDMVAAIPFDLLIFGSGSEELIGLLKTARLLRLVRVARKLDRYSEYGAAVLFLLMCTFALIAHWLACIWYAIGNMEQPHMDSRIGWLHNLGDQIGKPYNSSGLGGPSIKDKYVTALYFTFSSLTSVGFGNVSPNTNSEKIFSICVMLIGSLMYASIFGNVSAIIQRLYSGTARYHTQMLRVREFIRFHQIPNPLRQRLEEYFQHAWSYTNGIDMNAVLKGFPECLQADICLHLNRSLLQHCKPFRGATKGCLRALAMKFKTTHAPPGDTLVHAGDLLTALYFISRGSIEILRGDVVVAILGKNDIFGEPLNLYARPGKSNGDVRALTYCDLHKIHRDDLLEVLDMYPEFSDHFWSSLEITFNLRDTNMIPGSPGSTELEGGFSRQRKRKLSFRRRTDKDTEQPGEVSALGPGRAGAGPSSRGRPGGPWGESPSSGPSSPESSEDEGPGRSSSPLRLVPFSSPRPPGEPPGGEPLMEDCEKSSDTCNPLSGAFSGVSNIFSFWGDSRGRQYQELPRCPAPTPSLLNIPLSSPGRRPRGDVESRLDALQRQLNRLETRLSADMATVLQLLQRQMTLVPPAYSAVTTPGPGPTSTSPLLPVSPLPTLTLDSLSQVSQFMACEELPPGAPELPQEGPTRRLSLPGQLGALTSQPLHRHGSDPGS

clearance [2]: 9 mL/min/kg
Cp(f) [6]: 3.7 nM
Papp A→B at 3 h, up to 1 µM [9]: 30 ×10⁻⁶ cm/s
MRT [11]: 3.9 h
IC50 [12]: 9.6 µM
Kp uu at 96 h [15]: 0.67
clearance [17]: 19 mL/min/kg
bioavailability [19]: 18%
MRT [20]: 24 h
pKa [21]: 5.65
CL [24]: 1295 mL/min/kg
Kp uu at 4 h, 2.5 µM [25]: 0.36
efflux ratio at 3 h, up to 1 µM [28]: 3.8
CL [30]: 445 mL/min/kg
CLint scaled at 0.3 µM [33]: 116 mL/min/kg
Kp uu at 2 h [34]: 0.36
MRT [35]: 5.2 h
solubility thermodynamic at 24 h [36]: 4 µg/mL (≈ 7.36 µM)
IC50 [39]: < 0.0006 µM
clearance [40]: 21 mL/min/kg
Papp at 3 h, up to 1 µM [41]: 28 ×10⁻⁶ cm/s
Compound: O[C@H]1COC[C@H]1N1CC[C@@H](c2cc3nc(Nc4cnn([C@@H]5CC5(F)F)c4Cl)ncc3cc2Cl)[C@H](F)C1
IC50 [1]: 9.7 µM
Activity [3]: Non-Toxic
Activity [4]: Non-Toxic
Activity [5]: Toxic
Activity [7]: Toxic
fold change (FC) [8]: 2
Activity [10]: Non-Toxic
Activity [13]: 2%
Activity [14]: Non-Toxic
inhibition in vivo at 3 mg/kg [16]: 32%
fold induction at 96 h [18]: 5
Activity [22]: Non-Toxic
Activity [23]: Non-Toxic
Activity [26]: Non-Toxic
fold induction at 96 h [27]: 2.5
inhibition in vivo at 30 mg/kg [29]: 92%
fold change (FC) [31]: 2
Activity [32]: Non-Toxic
fold induction at 96 h [37]: 3
Activity [38]: Non-Toxic
